Experiments:
Mus musculus [1] = experiment: Analgesic activity of compound in phase I mouse formalin activities at a dose range of […], s.c.; exhibited confounding effects; format: functional, organism-based
Mus musculus [2] = experiment: Analgesic activity of compound in phase II mouse formalin activities at a dose range of […], s.c.; exhibited confounding effects; format: functional, organism-based
Mus musculus [3] = experiment: Analgesic activity of compound in phase I mouse formalin activities at a dose range of 0.4-3.1 mg, s.c.; format: functional; conditions: sc
Mus musculus [4] = experiment: Analgesic activity of compound in phase II mouse formalin activities at a dose range of 0.4-3.1 mg, s.c.; format: functional; conditions: sc
Mus musculus [5] = experiment: Analgesic activity of compound in phase II mouse formalin activities at a dose range of 0.4-6.3 mg, s.c.; format: functional; conditions: sc
Mus musculus [6] = experiment: Analgesic activity of compound in phase I mouse formalin activities at a dose range of 0.4-6.3 mg, s.c.; format: functional; conditions: sc

SMILES	ED50 (Mus musculus [1])	ED50 (Mus musculus [2])	other results
C[C@]1(CNc2ccc(Cl)nc2)C=CCN1	Counfounding effects	Counfounding effects	–
Clc1ccc(OC[C@@H]2C=CCN2)cn1	Counfounding effects	Counfounding effects	–
C[C@]1(COc2ccc(Cl)nc2)C=CCN1	Counfounding effects	Counfounding effects	–
Clc1ccc(OC[C@H]2CCN2)cn1 [TEBANICLINE]	–	–	ED50 (Mus musculus [3]): 0.9 µmol/kg; ED50 (Mus musculus [4]): 0.8 µmol/kg
Clc1ccc(OC[C@H]2C=CCN2)cn1	–	–	ED50 (Mus musculus [5]): 1.6 µmol/kg; ED50 (Mus musculus [6]): 1.6 µmol/kg
C[C@@]1(COc2ccc(Cl)nc2)C=CCN1	Counfounding effects	Counfounding effects	–
C[C@]1(COc2cccnc2)C=CCN1	Counfounding effects	Counfounding effects	–
